Each structure is given as a SMILES string. “And” between values parts separate entries of the source, which are not always exact repeats. Equal values may be shown once.

Holding throughout (experiment): In vitro DCF-G processing assay (UPLC)
Holding throughout (assay type): biochemical

The target of experiment [1] is T1, Faecalibacterium prausnitzii GUS (FpGUS) (Faecalibacterium duncaniae, UniProt C7H4D2).
T1 sequence (C7H4D2 1-608): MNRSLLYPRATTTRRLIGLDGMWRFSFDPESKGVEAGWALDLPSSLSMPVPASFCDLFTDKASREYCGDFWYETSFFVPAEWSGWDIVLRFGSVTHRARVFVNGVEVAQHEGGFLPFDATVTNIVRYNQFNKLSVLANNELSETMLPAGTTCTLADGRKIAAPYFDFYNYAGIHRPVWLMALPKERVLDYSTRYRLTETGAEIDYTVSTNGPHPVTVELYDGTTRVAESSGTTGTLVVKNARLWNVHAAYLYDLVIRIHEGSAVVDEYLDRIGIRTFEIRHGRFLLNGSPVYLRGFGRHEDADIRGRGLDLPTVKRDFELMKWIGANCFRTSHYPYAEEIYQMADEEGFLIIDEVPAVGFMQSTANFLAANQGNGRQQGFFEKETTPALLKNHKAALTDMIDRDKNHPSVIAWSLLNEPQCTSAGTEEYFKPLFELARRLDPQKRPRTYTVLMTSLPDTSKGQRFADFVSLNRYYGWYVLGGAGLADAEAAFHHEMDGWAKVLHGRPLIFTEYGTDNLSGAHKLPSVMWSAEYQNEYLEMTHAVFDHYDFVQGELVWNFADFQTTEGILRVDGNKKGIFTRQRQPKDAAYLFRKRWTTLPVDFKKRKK
To be noted: DCF-G as substrate, 400 µM; pH 6.0; 37 °C.

A further experiment concerns the target E. coli GUS (EcGUS) (Escherichia coli, UniProt P05804). To be noted: DCF-G as substrate, 400 µM; pH 7.4; 37 °C. The text has this: (§1) While pNPG serves as a useful tool to assess the glucuronide processing capabilities of GUS enzymes, it is not a substrate present in the GI tract. Given our hypothesis that L1 GUS enzymes efficiently process drug glucuronides, we determined using ultra performance liquid chromatography (UPLC) the cleavage rates of the novel L1 GUS enzymes FpGUS, LrGUS, RgGUS, as well as the ten additional enzymes in our GUS panel, with the physiologically relevant glucuronide metabolite of the NSAID diclofenac, DCF-G (Table 3 and Fig. S11).
(§2) Diclofenac acyl β-D-glucuronide (DCF-G) was purchased as a solid (LC Scientific Inc., Concord ON) and resuspended in DMSO to a concentration of 25 mM. […] The pH of each reaction was chosen based on the optimal pH determined for each GUS with pNPG. Reactions were quenched at 0, 1, 2, 3, 4, and 5 min with 50 µL of 25% trichloroacetic acid (TCA). For PmGUS, reactions were quenched at 0, 10, 20, 30, 40, and 50 min. After centrifugation at 13,000xg for 10 min, the resultant supernatant was subjected to UPLC analysis. The concentration of DCF-G remaining at each time point was quantified on a Waters Acquity H-class liquid chromatograph system. Samples were separated on a Waters Acquity UPLC BEH C18 column (2.1 × 50 mm, 1.7 µm particle size) at 40 °C. The flow rate was 0.6 mL/min, and the injection volume was 3 µL. LC conditions were set at 100% water with 0.1% formic acid (A) ramped linearly over 9.8 mins to 95% acetonitrile with 0.1% formic acid (B) and held until 10.2 mins. At 10.21 mins the gradient was switched back to 100% A and allowed to re-equilibrate until 11.25 mins. DCF-G was monitored at 280 nm. The concentration of DCF-G was determined from a standard curve (0–500 µM DCF-G in assay buffer). Control reactions were performed in which enzyme was substituted with buffer. Background hydrolysis was not observed at each pH tested. Reactions were performed in triplicate for each enzyme.

The target in experiment [2] is T2, Streptococcus agalactiae GUS (SaGUS) (Streptococcus agalactiae serotype V, UniProt Q8E0N2).
T2 construct: 6x His; made in house
T2 sequence (Q8E0N2 whole entry): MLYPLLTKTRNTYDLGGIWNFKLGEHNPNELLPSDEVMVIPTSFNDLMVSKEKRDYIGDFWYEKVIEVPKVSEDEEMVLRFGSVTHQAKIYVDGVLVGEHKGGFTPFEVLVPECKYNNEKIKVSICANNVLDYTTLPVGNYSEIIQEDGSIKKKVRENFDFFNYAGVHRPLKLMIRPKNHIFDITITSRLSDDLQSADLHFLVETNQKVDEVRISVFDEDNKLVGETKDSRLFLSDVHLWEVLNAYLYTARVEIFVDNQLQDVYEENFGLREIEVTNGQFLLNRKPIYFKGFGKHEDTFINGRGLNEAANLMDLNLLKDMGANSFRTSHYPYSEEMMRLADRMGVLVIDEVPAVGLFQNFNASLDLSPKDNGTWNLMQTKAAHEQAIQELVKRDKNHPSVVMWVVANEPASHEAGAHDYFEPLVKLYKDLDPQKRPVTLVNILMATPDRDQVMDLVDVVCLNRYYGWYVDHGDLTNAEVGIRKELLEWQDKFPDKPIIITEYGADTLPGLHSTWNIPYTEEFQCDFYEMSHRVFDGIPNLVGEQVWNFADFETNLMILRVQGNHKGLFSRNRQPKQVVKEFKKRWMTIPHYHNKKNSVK
The settings on record: DCF-G as substrate, 400 µM; pH 6.5; 37 °C.
Description: as §1, §2

Experiment [3] deals with Bacteroides fragilis GUS (BfGUS) (Bacteroides fragilis, UniProt Q5LIC7). To be noted: DCF-G as substrate, 400 µM; pH 5.0; 37 °C.
Bacteroides fragilis GUS (BfGUS), sequence (Q5LIC7 whole entry): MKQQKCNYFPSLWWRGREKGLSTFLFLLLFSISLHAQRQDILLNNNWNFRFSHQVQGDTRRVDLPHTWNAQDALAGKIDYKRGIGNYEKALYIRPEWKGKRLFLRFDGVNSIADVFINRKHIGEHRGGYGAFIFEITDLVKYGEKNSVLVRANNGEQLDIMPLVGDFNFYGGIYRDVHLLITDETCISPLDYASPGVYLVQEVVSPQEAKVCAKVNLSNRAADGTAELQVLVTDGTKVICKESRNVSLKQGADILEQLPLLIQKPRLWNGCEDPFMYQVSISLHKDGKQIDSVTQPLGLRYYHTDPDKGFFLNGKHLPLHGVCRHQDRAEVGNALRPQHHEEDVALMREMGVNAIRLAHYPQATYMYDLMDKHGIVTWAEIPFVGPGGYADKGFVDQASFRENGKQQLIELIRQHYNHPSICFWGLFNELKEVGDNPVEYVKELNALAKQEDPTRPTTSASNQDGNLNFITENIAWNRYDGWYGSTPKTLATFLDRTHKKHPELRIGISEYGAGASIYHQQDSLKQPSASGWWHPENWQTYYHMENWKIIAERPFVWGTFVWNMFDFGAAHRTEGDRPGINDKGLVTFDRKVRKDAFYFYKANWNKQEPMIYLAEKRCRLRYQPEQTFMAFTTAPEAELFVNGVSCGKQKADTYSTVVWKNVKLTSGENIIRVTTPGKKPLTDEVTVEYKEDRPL
Description: as §1, §2

In experiment [4] the target is T3, Bacteroides dorei GUS (BdGUS) (Phocaeicola dorei, UniProt I9FNR0).
T3 sequence (I9FNR0 21-875): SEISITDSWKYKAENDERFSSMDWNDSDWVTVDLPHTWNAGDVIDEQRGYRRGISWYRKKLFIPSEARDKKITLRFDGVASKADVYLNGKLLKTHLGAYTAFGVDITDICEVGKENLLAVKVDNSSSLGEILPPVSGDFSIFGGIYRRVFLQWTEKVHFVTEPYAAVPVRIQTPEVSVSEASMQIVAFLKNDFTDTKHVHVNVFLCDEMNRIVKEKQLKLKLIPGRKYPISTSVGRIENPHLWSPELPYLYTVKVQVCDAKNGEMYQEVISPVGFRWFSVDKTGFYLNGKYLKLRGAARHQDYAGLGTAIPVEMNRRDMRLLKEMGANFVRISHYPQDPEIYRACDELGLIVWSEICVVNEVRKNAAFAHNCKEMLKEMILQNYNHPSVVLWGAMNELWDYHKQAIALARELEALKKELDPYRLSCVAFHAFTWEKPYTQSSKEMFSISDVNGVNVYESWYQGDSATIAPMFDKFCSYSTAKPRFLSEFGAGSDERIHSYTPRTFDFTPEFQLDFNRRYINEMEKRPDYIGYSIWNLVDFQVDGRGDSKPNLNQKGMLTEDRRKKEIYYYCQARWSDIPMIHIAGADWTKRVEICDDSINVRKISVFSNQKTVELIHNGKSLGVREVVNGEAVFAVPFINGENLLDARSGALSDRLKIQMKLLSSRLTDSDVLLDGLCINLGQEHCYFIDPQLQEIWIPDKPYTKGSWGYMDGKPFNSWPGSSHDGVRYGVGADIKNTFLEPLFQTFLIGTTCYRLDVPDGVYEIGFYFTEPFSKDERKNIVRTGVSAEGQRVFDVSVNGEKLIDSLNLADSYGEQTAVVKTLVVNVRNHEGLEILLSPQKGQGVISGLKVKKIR
The settings on record: DCF-G as substrate, 400 µM; pH 6.0; 37 °C.

E. coli GUS (EcGUS), sequence (P05804 whole entry): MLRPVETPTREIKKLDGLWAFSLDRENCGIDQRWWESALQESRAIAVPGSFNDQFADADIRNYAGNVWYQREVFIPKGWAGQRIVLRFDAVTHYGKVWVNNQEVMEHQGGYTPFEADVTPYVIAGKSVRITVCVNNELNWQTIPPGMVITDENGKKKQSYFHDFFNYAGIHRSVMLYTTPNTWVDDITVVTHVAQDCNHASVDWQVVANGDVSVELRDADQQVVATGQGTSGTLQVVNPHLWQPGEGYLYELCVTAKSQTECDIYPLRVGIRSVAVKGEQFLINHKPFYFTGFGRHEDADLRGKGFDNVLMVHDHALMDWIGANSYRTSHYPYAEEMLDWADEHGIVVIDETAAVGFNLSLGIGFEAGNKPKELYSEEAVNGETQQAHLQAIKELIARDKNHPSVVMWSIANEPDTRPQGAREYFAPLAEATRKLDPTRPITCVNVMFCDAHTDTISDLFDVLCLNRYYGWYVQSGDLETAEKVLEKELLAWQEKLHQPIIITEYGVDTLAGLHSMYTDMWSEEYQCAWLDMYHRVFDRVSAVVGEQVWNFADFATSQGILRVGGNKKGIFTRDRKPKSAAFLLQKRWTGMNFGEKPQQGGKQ

Turning to `O=C(Cc1ccccc1Nc1c(Cl)cccc1Cl)O[C@@H]1O[C@H](C(=O)O)[C@@H](O)[C@H](O)[C@H]1O` [DCF-G, Diclofenac acyl β-D-glucuronide], the “Apparent kcat” value in experiment [1] is 32 ± 3 s⁻¹; on E. coli GUS (EcGUS), 30.7 s⁻¹ and 30.7 ± 0.7 s⁻¹; in experiment [2], 97 s⁻¹ and 97 ± 5 s⁻¹; in experiment [3] it was 15.1 s⁻¹ and 15.1 ± 0.5 s⁻¹; in experiment [4], 9.8 ± 0.6 s⁻¹.

The values above are taken from paper PMC6351562, “Structure, function, and inhibition of drug reactivating human gut microbial β-glucuronidases” (Scientific Reports, 2019).
